Data from publication PMC3344887 (PLoS ONE, 2012).

Experiments:
[1] = molecular target: T1, NET (Homo sapiens, UniProt P23975); assay: Radioligand binding, [3H]-nisoxetine, HEK 293 membranes; design: expressed in transfected cells; host or cells: HEK 293 cells (Invitrogen), stably transfected
[2] = design: method as in earlier work; details: cited from earlier work
[3] = molecular target: T1, NET; details: % of plasma sample dilution, undiluted plasma = 100%; plasma 120 min after MDMA/placebo; mean±SEM
[4] = test system: healthy subjects; assay: Circulating plasma catecholamines, clinical study; assay type: in vivo, humans; details: peak change from baseline, mean±SEM, 16 subjects
Experimental: (§1) The washout periods between the sessions were at least 10 days long.
(§2) Identical placebo (lactose) capsules were prepared. […] Drugs were administered without food.
Plasma concentrations of copeptin were also determined in this study as reported elsewhere. […] No hydrolysis was performed. Thus, the values for HMMA represent the drug concentrations of the non-conjugated metabolite. All blood samples were collected on ice and centrifuged within 10 min at 4°C. The plasma was then stored at –20°C until the analysis.

[5] = cited from earlier work
[6] = test system: healthy subjects; assay: Adjective Mood Rating Scale (AMRS), clinical study; assay type: in vivo, humans; details: peak change from baseline, mean±SEM, 16 subjects
Experimental: as §1, §2
The psychometric measures included Visual Analog Scales (VAS), [10], the Adjective Mood Rating Scale (AMRS), and 5-Dimensions of Altered States of Consciousness (5D-ASC), [23]. […] The VASs were presented as 100 mm horizontal lines marked “not at all" on the left and “extremely" on the right. The VASs for “closeness to others," “open," and “talkative" were bidirectional (±50 mm). The VASs were administered 4 h before and 0, 0.33, 1, 1.5, 2, 2.5, 3, 3.5, 4, and 5 h after MDMA or placebo administration. […] The AMRS contains subscales for activity, extroversion and introversion, well-being, emotional excitation, anxiety-depression, and dreaminess. The 5D-ASC rating scale measures alterations in mood, perception, experience of self in relation to the environment, and thought disorder. The 5D-ASC rating scale comprises five subscales or dimensions and 11 lower-order scales. The 5D-ASC dimension “oceanic boundlessness" (OB, 27 items) measures derealization and depersonalization associated with positive emotional states, ranging from heightened mood to euphoric exaltation. […] The global ASC score was determined by adding the OB, AED, and VR scores. The 5D-ASC scale was administered 4 h after MDMA or placebo administration.
(§3) Clinical data values were transformed to differences from baseline. Peak effects (Emax) were determined for repeated measures. Emax values were compared using General Linear Models repeated-measures analysis of variance, with drug as within-subject factor, using Statistica 6.0 software (StatSoft, Tulsa, OK). Tukey post hoc comparisons were performed based on significant main effects of treatment. Additional analyses of variance were performed, with period as factor to exclude period effects. Correlation analyses were performed using Pearson’s correlations. The criterion for significance was p<0.05. Mean arterial pressure (MAP) was calculated from diastolic blood pressure and systolic blood pressure using the following formula: MAP = DBP+(SBP - DBP)/3.

[7] = molecular target: DAT (Homo sapiens, UniProt Q01959); details: % of plasma sample dilution, undiluted plasma = 100%; plasma 120 min after MDMA/placebo
[8] = molecular target: T1, NET; assay: [3H]-NE uptake inhibition, method A (silicon oil); assay type: cell-based; design: expressed in transfected cells; host or cells: HEK 293 cells (Invitrogen), stably transfected
[9] = test system: healthy subjects; assay: Physiologic measures (blood pressure, heart rate, body temperature), clinical study; assay type: in vivo, humans; details: peak change from baseline, mean±SEM, 16 subjects
Experimental: as §1, §2
Physiologic measures were assessed repeatedly 4, 3, 2, and 1 h before and 0, 0.33, 0.66, 1, 1.5, 2, 2.5, 3, 4, 5, and 6 h after MDMA or placebo administration. Heart rate, systolic blood pressure, and diastolic blood pressure were measured using an OMRON M7 blood pressure monitor (OMRON Healthcare Europe, Hoofddorp, The Netherlands). Measures were taken twice per time point with an interval of 1 min, and the average was used for the analysis. Core (tympanic) temperature was assessed using a GENIUS 2 ear thermometer (Tyco Healthcare Group, Watertown, NY). […] Adverse effects were assessed using the List of Complaints (LC), which consists of 66 items that yield a total adverse effects score and reliably measure physical and general discomfort.
as §3

T1 sequence (P23975 whole entry): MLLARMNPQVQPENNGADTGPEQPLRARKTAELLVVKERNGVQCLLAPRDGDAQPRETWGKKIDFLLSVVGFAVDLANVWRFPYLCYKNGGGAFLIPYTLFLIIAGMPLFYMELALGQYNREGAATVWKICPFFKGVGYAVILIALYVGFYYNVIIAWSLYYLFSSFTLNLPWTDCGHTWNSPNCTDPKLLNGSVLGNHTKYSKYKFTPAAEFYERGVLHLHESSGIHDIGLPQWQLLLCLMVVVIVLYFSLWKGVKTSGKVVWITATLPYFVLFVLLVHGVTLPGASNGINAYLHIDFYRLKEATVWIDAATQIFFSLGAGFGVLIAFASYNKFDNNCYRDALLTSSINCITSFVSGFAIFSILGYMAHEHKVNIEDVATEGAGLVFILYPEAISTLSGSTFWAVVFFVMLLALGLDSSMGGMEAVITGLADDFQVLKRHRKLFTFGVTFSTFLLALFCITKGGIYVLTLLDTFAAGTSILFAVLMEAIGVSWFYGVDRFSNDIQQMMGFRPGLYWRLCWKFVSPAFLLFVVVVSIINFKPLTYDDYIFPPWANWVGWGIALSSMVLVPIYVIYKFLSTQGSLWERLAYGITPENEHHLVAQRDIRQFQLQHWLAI
Chain of DAT (Q01959 whole entry): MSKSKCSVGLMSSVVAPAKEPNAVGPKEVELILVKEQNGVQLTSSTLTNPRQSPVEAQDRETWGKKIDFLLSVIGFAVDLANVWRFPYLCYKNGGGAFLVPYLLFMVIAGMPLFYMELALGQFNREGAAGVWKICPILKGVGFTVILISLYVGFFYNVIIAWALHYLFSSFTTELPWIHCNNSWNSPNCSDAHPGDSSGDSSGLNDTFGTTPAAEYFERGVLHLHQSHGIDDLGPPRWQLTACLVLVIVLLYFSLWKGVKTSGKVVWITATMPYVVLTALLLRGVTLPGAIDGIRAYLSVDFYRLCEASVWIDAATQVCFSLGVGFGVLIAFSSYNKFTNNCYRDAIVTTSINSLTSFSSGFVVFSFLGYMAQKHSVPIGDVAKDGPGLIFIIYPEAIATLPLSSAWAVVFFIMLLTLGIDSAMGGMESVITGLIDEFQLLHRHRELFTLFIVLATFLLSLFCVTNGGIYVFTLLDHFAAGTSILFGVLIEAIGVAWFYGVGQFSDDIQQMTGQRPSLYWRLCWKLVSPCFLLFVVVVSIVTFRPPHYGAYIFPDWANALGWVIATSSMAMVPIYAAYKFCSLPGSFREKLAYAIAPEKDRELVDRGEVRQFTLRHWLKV

SMILES: CNC(C)Cc1ccc2c(c1)OCO2 (centres unmarked) [MDMA, 3,4-methylenedioxymethamphetamine]
- Ki [1]: 22.4 ± 14.6 µM
- Mean duration of subjective and cardiovascular effects [2]: 3.5 h
- Time within which effects completely subside [2]: 5 to 6 h
- Ex vivo binding (IC50%) NET [3]: 23.4±0.7%
- Circulating Epinephrine, Emax [4]: 0.50 ± 0.12 nM
- Circulating Norepinephrine, Emax [4]: 0.44 ± 0.12 nM
- T1/2 ([5]; 100 -125 mg dose): 8 to 9 h
- Increase of MDMA plasma levels ([5]; pretreatment with paroxetine): 30%
- Tmax ([5]; single dose): 2 to 2.4 h
- AMRS Activity, Emin [6]: −4.69±1.04
- AMRS Dreaminess, Emax [6]: 2.94±0.66
- AMRS Emotional excitation, Emax [6]: 4.94±0.97
- AMRS Extroversion, Emax [6]: 3.50±0.61
- AMRS Introversion, Emax [6]: 2.62±0.65
- AMRS Well-being, Emax [6]: 7.06±1.01
- Ex vivo binding (IC50%) DAT [7]: >25%
- Ki [8]: 0.47 µM
- Potency of NET inhibition relative to SERT ([8]; uptake inhibition): three-fold more potently
- DPB, Emax ([9]; diastolic blood pressure): 22.13±2.08 mm Hg
- MAP, Emax ([9]; mean arterial pressure): 21.76±2.73 mm Hg
- Heart rate, Emax [9]: 26.06±2.77 beats/min
- SBP, Emax ([9]; systolic blood pressure): 29.94±3.41 mm Hg
- Body temperature, Emax ([9]; tympanic): 0.54±0.07 °C
